Results from US20240182445A1 (ONO PHARMACEUTICAL CO., LTD., priority 2019, published 2024).

Tests used:
[1] = Rat in vivo pharmacokinetics and brain distribution (i.v. cassette); conditions: iv, rat i.v. cassette injection
Procedure: Compound 12 was tested in several in vivo assays to investigate pharmacokinetics and brain distribution. Abbreviations which have been used in the descriptions of following tables are; CLp is plasma clearance; Vss is volume of distribution at steady state; Elim. t1/2 is half-life for elimination; Kp is tissue distribution partition coefficient; Kp,uu is unbound tissue distribution partition coefficient.

plasma protein [2] = test: Mouse plasma protein binding (PPB); format: in vitro ADME
Procedure: (§1) These assays were performed according to known methods as generally described in the following references: Conde-Ceide et al. ACS Med. Chem. Lett. 2015, 6, 716-720; Morris et al. J. Med. Chem. 2014, 57, 10192-10197; and Bubser et al. ACS Chem. Neurosci. 2014, 5, 920-942. Abbreviations which have been used in the descriptions of the following tables are; PPB is plasma protein binding; BHB is brain homogenate binding; and CLint is intrinsic clearance in hepatic microsomes.

human TREK-1 [3] = biological target: T1, human TREK-1 (Homo sapiens, UniProt O95069); test: TREK-1 Manual Patch Clamp (hMPC) assay; format: cell-based; conditions: CHO-K1 cells stably expressing human TREK-1; whole-cell current at 0 mV
T1 construct: expressed in transfected cells
T1 sequence (O95069 1-426): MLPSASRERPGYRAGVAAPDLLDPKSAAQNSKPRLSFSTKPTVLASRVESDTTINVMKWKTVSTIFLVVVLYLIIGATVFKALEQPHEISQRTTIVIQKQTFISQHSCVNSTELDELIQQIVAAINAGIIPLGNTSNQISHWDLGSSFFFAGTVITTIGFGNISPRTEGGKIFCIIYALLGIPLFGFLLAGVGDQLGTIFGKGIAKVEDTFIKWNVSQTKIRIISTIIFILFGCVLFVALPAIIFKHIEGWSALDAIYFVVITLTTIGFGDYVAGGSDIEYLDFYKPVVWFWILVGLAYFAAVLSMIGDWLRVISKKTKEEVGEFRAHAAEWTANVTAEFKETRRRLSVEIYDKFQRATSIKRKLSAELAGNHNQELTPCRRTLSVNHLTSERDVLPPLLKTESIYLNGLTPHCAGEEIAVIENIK
Procedure: The term “patch clamp technique” herein refers to the “gold standard” technique for evaluating TREK channel pharmacology. The detail method is described below.
CHO-K1 cells stably expressing human TREK-1 or HEK293 cells stably expressing human TREK-2 are plated on glass coverslips, and voltage clamped in the whole-cell configuration of the patch clamp technique. Cells were voltage clamped at a holding potential of −80 mV and the stepped to 0 mV for 500 msec. The voltage was subsequently ramped from −120 mV to +80 mV over a 500 msec duration. This step-ramp protocol was repeated every 10 sec. The bathing solution contained the following: 135 mM NaCl, 5 mM KCl, 2 mM CaCl2, 1 mM MgCl2, 5 mM D-Glucose, 10 mM HEPES, 10 mM sucrose (adjusted to pH 7.4 with NaOH, 300 mosmol/kg H2O). The pipette solution contained the following: 135 mM KCl, 2 mM MgCl2, 1 mM EGTA, 10 mM HEPES, 2 mM Na2ATP (adjusted to pH 7.35 with KOH, 285 mosmol/kg H2O). Test compounds were dissolved into the bathing solution. Experiments on TREK-2 were terminated with the addition of the control compound (tert-butyl (3-((4-(benzyloxy)-2-methylphenyl)carbamoyl)-4-chlorophenyl)carbamate) so that maximal inhibition could be determined. The effects of test compound on the currents were calculated at 0 mV using the following equations:
For CHO cells expressing TREK-1 channel: % inhibition=(1-post current/pre current)×100
The compounds shown in Table 2 were prepared in an analogous manner with the appropriate starting materials, and evaluated in our TREK-1 Manual Patch Clamp (hMPC) assay.

plasma protein [4] = test: Rat plasma protein binding (PPB); format: in vitro ADME
Procedure: as §1

[5] = Mouse hepatic microsomal intrinsic clearance; format: in vitro ADME; conditions: mouse hepatic microsomes
Procedure: as §1

[6] = Rat hepatic microsomal intrinsic clearance; format: in vitro ADME; conditions: rat hepatic microsomes
Procedure: as §1

[7] = Mouse brain homogenate binding (BHB); format: in vitro ADME
Procedure: as §1

human TREK-1 [8] = biological target: T1, human TREK-1; test: TREK-1 Thallium (Tl+) flux assay, Method 1; format: cell-based; conditions: TREK-1 Thallium (Tl+) flux assay; values without footnote *12 are Method 1
Method in brief: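 CHO-K1 cells stably expressing human TREK-1, loaded with Thallos dye, received compound or 0.3% DMSO vehicle for 10 min before thallium stimulus buffer. ΔRatio is fluorescence at 25 s after thallium addition over mean pre-addition fluorescence; % inhibition calculated from it.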

- Kp uu ([1]; brain, unbound tissue distribution partition coefficient, read-out: Rat brain: plasma Kp, uu): 0.19
- clearance ([1]; plasma clearance, read-out: Rat CLp): 28 mL/min/kg
- half-life ([1]; plasma, half-life for elimination, read-out: Rat Elim. t1/2 (converted)): 2 h
- Vd ([1]; plasma, volume of distribution at steady state, read-out: Rat Vss): 4.7 L/kg
- Mouse PPB (% bound) (plasma protein [2]): 99.2 % bound
- IC50 (human TREK-1 [3]): 60 nM
- Rat PPB (% bound) (plasma protein [4]): 98.4 % bound
- CLint scaled [5]: 103 mL/min/kg
- CLint scaled [6]: 54 mL/min/kg
- Mouse BHB (% bound) [7]: 99.7 % bound
- IC50 (human TREK-1 [8]): 130 nM
Structure (SMILES): CC(=O)N[C@H]1CC[C@@H](n2ncc(Cl)c2C(=O)Nc2ncc(C#Cc3ccccc3)cc2C)CC1 [Compound 12, 1-(cis-4-acetamidocyclohexyl)-4-chloro-N-(3-methyl-5-(phenylethynyl)pyridin-2-yl)-1H-pyrazole-5-carboxamide]
